# Literature values in paper PMC4460250, “Systems Pharmacology Dissecting Holistic Medicine for Treatment of Complex Diseases: An Example Using Cardiocerebrovascular Diseases Treated by TCM” (Evidence-based Complementary and Alternative Medicine : eCAM, 2015).
# Conditions: in vivo; cited from earlier work
row,Structure (SMILES),HIA(Human Intestinal Absorption)
1,O=C(C1CCCCC1)N1CC(=O)N2CCc3ccccc3C2C1 (stereo not shown) [Praziquantel],1
2,COc1cc2nc(N3CCN(C(=O)c4ccco4)CC3)nc(N)c2cc1OC [Prazosin],0.86
3,CCC1(c2ccccc2)C(=O)NCNC1=O [Primidone],0.75
4,CCCN(CCC)S(=O)(=O)c1ccc(C(=O)O)cc1 [Probenecid],1
5,[H]/N=C(\N/C(=N/[H])Nc1ccc(Cl)cc1)NC(C)C [Proguanil],0.8
6,CNCCCC1c2ccccc2C=Cc2ccccc21 [Protriptyline],0.95
7,NC(=O)c1cnccn1 [Pyrazinamide],1
8,OCCOCCN1CCN(C2=Nc3ccccc3Sc3ccccc32)CC1 [Quetiapine],0.73
9,CCCN1CC(NS(=O)(=O)N(CC)CC)CC2Cc3c(O)cccc3CC21 (stereo not shown) [Quinagolide],1
10,COCCCOc1ccnc(C[S+]([O-])c2nc3ccccc3[nH]2)c1C (stereo not shown) [Rabeprazole],0.9
11,CNC(=C[N+](=O)[O-])NCCSCc1ccc(CN(C)C)o1 [Ranitidine],0.5
12,Cc1cccc(C)c1NC(=O)NCCCNC(C)C [Recainam],0.71
13,NC(=O)c1ncn([C@@H]2O[C@H](CO)[C@@H](O)[C@H]2O)n1 [Ribavirin],0.33
14,CC(NCCc1ccc(O)cc1)C(O)c1ccc(O)cc1 (stereo not shown) [Ritodrine],0.95
15,CN(C)CCc1c[nH]c2ccc(Cn3cncn3)cc12 [Rizatriptan],0.9
16,O=C1NS(=O)(=O)c2ccccc21 [Saccharin],0.88
17,O=C(Oc1ccccc1C(=O)O)c1ccccc1O [Salsalate],1
18,O=c1[nH]c(=O)n([C@@H]2O[C@H](CO)[C@@H](O)[C@@H]2O)cc1/C=C/Br [Sorivudine],0.82
19,C[C@@H]1CN(c2c(F)c(N)c3c(=O)c(C(=O)O)cn(C4CC4)c3c2F)C[C@H](C)N1 [Sparfloxacin],0.9
20,CC(=O)S[C@@H]1CC2=CC(=O)CC[C@]2(C)[C@H]2CC[C@@]3(C)[C@@H](CC[C@@]34CCC(=O)O4)[C@H]12 [Spironolactone],0.73

row,Structure (SMILES),HIA(Human Intestinal Absorption)
1,Cc1cn([C@H]2C=C[C@@H](CO)O2)c(=O)[nH]c1=O [Stavudine],1
2,[H]/N=C(/N)N[C@H]1[C@H](O)[C@@H](O)[C@H](O[C@@H]2O[C@@H](C)[C@](O)(C=O)[C@H]2O[C@@H]2O[C@@H](CO)[C@H](O)[C@@H](O)[C@@H]2NC)[C@@H](N/C(N)=N\[H])[C@@H]1O [Streptomycin],0.01
3,Cc1nnc(NS(=O)(=O)c2ccc(N)cc2)s1 [Sulfamethizole],0.85
4,O=C(O)c1cc(/N=N/c2ccc(S(=O)(=O)Nc3ccccn3)cc2)ccc1O [Sulfasalazine],0.62
5,O=C1C(CC[S+]([O-])c2ccccc2)C(=O)N(c2ccccc2)N1c1ccccc1 (stereo not shown) [Sulfinpyrazone],1
6,Cc1cc(NS(=O)(=O)c2ccc(N)cc2)nc(C)n1 [Sulfisomidine],0.9
7,Cc1noc(NS(=O)(=O)c2ccc(N)cc2)c1C [Sulfisoxazole],0.95
8,CC1=C(CC(=O)O)c2cc(F)ccc2/C1=C\c1ccc([S+](C)[O-])cc1 (stereo not shown) [Sulindac],0.9
9,O=C(O)c1cc(/N=N/c2ccc(S(=O)(=O)Nc3ccccn3)cc2)ccc1O [Sulphasalazine],0.59
10,CNS(=O)(=O)Cc1ccc2[nH]cc(CCN(C)C)c2c1 [Sumatriptan],0.57
11,Nc1c2c(nc3ccccc13)CCCC2 [Tacrine],0.95
12,CCOc1ccccc1OCCN[C@H](C)Cc1ccc(OC)c(S(N)(=O)=O)c1 [Tamsulosin],1
13,CC[C@H]1OC(=O)[C@H](C)C(=O)[C@H](C)[C@@H](O[C@@H]2O[C@H](C)C[C@H](N(C)C)[C@H]2O)[C@](C)(OC)C[C@@H](C)C(=O)[C@H](C)[C@H]2N(CCCCn3cnc(-c4cccnc4)c3)C(=O)O[C@]12C [Telithromycin],0.9
14,CCCc1nc2c(C)cc(-c3nc4ccccc4n3C)cc2n1Cc1ccc(-c2ccccc2C(=O)O)cc1 [Telmisartan],0.9
15,CN1C(C(=O)Nc2ccccn2)=C(O)c2sccc2S1(=O)=O [Tenoxicam],1
16,CN(C/C=C/C#CC(C)(C)C)Cc1cccc2ccccc12 [Terbinafine],0.8
17,COc1cc2c(cc1OC)C1CC(=O)C(CC(C)C)CN1CC2 (stereo not shown) [Tetrabenazine],1
18,c1ccc2[nH]c(-c3cscn3)nc2c1 [Thiabendazole],0.9
19,Cc1ccsc1C(=CCCN1CCC[C@@H](C(=O)O)C1)c1sccc1C [Tiagabine],0.9
20,C#C[C@]1(O)CC[C@H]2[C@@H]3[C@H](C)CC4=C(CCC(=O)C4)[C@H]3CC[C@@]21C [Tibolone],0.9
